Results reported in patent US20260374782A1, “NEW COMPOUNDS, PROCESSES FOR PREPARING THE SAME AND THEIR USE AS DRUGS” (B&A ONCOMEDICAL, priority 2022, published 2026).
Values joined by “and” are separate entries in the source; they are usually repeats but may differ in a detail not shown here. Equal values may be shown once.

Assays:
[1] = test system: CA3 pyramidal neurons in hippocampus; test: Giant depolarizing potentials (GDPs) current density in CA3 pyramidal neurons, hippocampal slices, whole-cell recordings; assay type: cell-based, mice; conditions: for GDPs current density (normalized): individual cells; for activity at 0.1 µM / activity at 0.3 µM / activity at 1 µM / activity at 3 µM / activity at 10 µM: Mus musculus, Pyramidal neuron, mean, read-out: GDPs current density, Mean (normalized); for block of GDPs in CA3 pyramidal neurons: in words
Description: FIG. 2. Brain slice (hippocampus) with electrical stimulation and recording
FIG. 3. Normalized GDP current density in CA3 pyramidal neurons in presence of NKCC1 inhibitor
Panel A. Normalized GDP current density in CA3 pyramidal neurons according to the concentration of compound 57 in μM Panel B. Normalized GDP current density in CA3 pyramidal neurons according to the concentration of compound 51 in μM Panel C. Normalized GDP current density in CA3 pyramidal neurons according to the concentration of compound 57 and compound 51 in μM.
51 and 57 were tested to evaluate their basic neuronal intrinsic properties and excitability. Current-clamp whole-cell recordings were performed in CA3 pyramidal neurons in hippocampal slices from P14-15 mice with a bipolar stimulation electrode (FIG. 2).

CA1 pyramidal neurons = test: Seizure-like events (SLE) triggered by tetanus stimulation of stratum radiatum in hippocampus, cell-attached recording; assay type: cell-based; conditions: for anticonvulsive activity / suppression of GABAAR-mediated depolarization during SLEs: 2 μM, in words
Experimental: (§1) FIG. 4. Cell-attached recording Tetanus in CA1 pyramidal neurons in presence of compound 51 (20 stimulus, 100 Hz, 4 consecutive traces superimposed), expressed in picoampere per second. The upper bars are representing the 100 Hz stimulation of stratum radiatum in control conditions, and the lower bars are representing 30 minutes after application of 2 μM of compound 51.
as §1, with “5.” for “4.”, “57” for “51”, “57.” for “51.”
FIG. 6. Post-tetanus frequency (normalized) in presence or not of 2 μM of compound 51 (withing 20 seconds window s after tetanus stimulation) (paired two-tailed t test: p=1*e^−4, n=5 cells). The error bars represent standard error of the mean.
FIG. 7. Post-tetanus frequency (normalized) in presence or not of 2 μM of compound 57 (withing 20 seconds window s after tetanus stimulation) (paired two-tailed t test: p=1*e^−4, n=5 cells). The error bars represent standard error of the mean.
Use of a NKCC1 inhibitor to block the activation of NKCC1 can reduce the [Cl^−]i, and thereby attenuate the excitatory GABAAR responses during epilepsy. Therefore, anticonvulsant effects of 51 on modulating the GABA polarity in acute seizure models was investigated. The seizure-like events in CA1 pyramidal neurons were triggered by tetanic stimulation of stratum radiatum in hippocampus by 51 (FIG. 4) and 57 (FIG. 5).

Row | Compound | GDPs current density (normalized) ([1]; 0.1 μM) | GDPs current density (normalized) ([1]; 0.3 μM) | GDPs current density (normalized) ([1]; 1 μM) | GDPs current density (normalized) ([1]; 3 μM) | GDPs current density (normalized) ([1]; 10 μM) | activity at 0.1 µM ([1]; 0.1 μM) [%] | activity at 0.3 µM ([1]; 0.3 μM) [%] | activity at 1 µM ([1]; 1 μM) [%] | activity at 3 µM ([1]; 3 μM) [%] | activity at 10 µM ([1]; 10 μM) [%] | block of GDPs in CA3 pyramidal neurons [1] | anticonvulsive activity (CA1 pyramidal neurons) | suppression of GABAAR-mediated depolarization during SLEs (CA1 pyramidal neurons) | activity at 2 µM (CA1 pyramidal neurons; Pyramidal neuron, 0.5 h, fraction of control, n=5, two-tailed paired t-test, p=5*e^−4, read-out: post-tetanus spike frequency, of control) [%]
1 | CCCCNc1cc(C(=O)O)cc(S(=N)(=O)NC)c1Oc1ccccc1 (stereo not drawn) [Compound 51, 3-(butylamino)-5-(methylaminosulfonimidoyl)-4-phenoxy-benzoic acid] | 0.6538 and 1.003 and 0.8458 and 0.6095 and 0.2984 | 0.2304 and 0.3999 and 0.22 and 0.9979 and 1.222 and 0.1863 | 0.2253 and 0.1713 and 0.1814 and 0.3747 and 0.3549 and 0.1282 and 0.4268 | 0.1082 and 0.484 and 0.1443 and 0.1442 and 0.08715 and 0 and 0.175 | 0.1092 and 0 (2×) and 0.04 (2×) and 0.05 | 68.2 | 54.3 | 26.6 | 16.3 | 3.99 | able to block GDPs | potent anticonvulsive activity | potently suppressed | 27 ± 7
2 | CCCCNc1cc(C(=O)O)cc(S(=N)(=O)Nc2ccccc2)c1Oc1ccccc1 (stereo not drawn) [Compound 57, 3-(anilinosulfonimidoyl)-5-(butylamino)-4-phenoxy-benzoic acid] | 1.067 and 0.6415 and 0.36 and 0.7716 and 1.279 and 0.8652 and 0.5079 and 0.901 | 0.3666 and 0.448 and 0.5922 and 0.1844 and 0.9957 and 0.5556 and 0.7164 | 0.5108 and 0.3317 and 0.1389 and 0.1288 and 0.09779 and 0.191 and 0.2683 and 0.352 | 0.06999 and 0.4997 and 0.2222 and 0.0431 and 0.2732 and 0.2642 and 0 | 0.06399 and 0.2068 and 0 (3×) | 79.9 | 55.1 | 25.2 | 19.6 | 5.42 | able to block GDPs | potent anticonvulsive activity | potently suppressed | –
